Here are results for one compound from patent US20030045482A1, “Using D-ribose with or without anti-microbial agents to enhance healing and subsequent recovery by both synthesizing and sparing NAD derivatives” (priority 2000, published 2003).

Where only a bound is given, the exact number is not on record here.

One experiment has as its system clean wounds. Description: rate of healing of clean wounds. The format is in vivo. Conditions: ribose by itself. From the text: (§1) Only with respect to the skin has ribose been used for healing purposes, and these are for wound healing in which ribose in combination with other nutrients improved the rate of healing. […] It then became reasonable to assume that this combination should be extended to internal wounds.

Another experiment relates to infected wounds. Description: rate of healing of infected wounds, ribose combined with antibiotics. The format is in vivo.
From the text: as §1

Another experiment relates to appetite. Description: appetite after D-ribose aqueous solution given during a meal. The format is in vivo, people. From the text: This brings up the paradoxical role that ribose plays with respect to appetite. Ribose is offered to consumers primarily because it is rate-limiting in the production of phosphoribosylpyrophosphate (PRPP), a precursor for salvage and for de novo adenine nucloeotide synthetic pathways, which maintain, AMP and ADP (adenosine diphosphate) for re-synthesis of ATP. The high-energy bonds of ATP are the direct source for muscle contraction including myocardial contractions but also energize every cell in the body, especially the immune system under attack. The presence of de novo D-ribose not only enables ATP to be synthesized much faster, but its presence also serves to stimulate the salvage of these nucleotides. With this in mind, a curious thing has been observed. […] The only explanation for this is that the salvage of these nucleotides especially ATP is stimulated by forcibly spraying the ribose onto the tongue. This causes the stomach to send out less of the hormone ghrelin and a full feeling ensues with less food. If a person is ill, care must be taken not to spray ribose forcibly on the tongue by pump action or compressed gas, but rather have it be swallowed immediately or given parenterally.

The test system of another experiment is ATP synthesis. Conditions: with de novo D-ribose; 72 to 96 hours ordinarily required from glucose; cited from earlier work.

For `O=C[C@H](O)[C@H](O)[C@H](O)CO` [D-ribose], the “rate of healing of clean wounds” value with clean wounds is on record as “will improve the rate of healing of clean wounds”. Moreover, the “rate of healing of infected wounds” value in the experiment with infected wounds is on record as “will improve the rate of healing infected wounds”. Besides, the values for the effect on appetite entry in the experiment with appetite (aqueous solution sprayed forcibly by pump action on the tongue during a meal) and in the experiment on appetite (ribose swallowed) were “causes the appetite to abate in many people” and “far less such effect”, respectively. Moreover, in the experiment with ATP synthesis, the “time for synthesis of ATP” value was at least 8 h.
